Drawing on patent US11753411B2, “Substituted pyrazolo[1,5-a]pyrimidines as TYK2 pseudokinase ligands” (Ventyx Biosciences, Inc., priority 2019, dated 2023), this text covers IC50 for 33 compounds.

Some results are limits rather than exact numbers.

For this assay, the system named is IFN-a/Jak1 Tyk2. Kind of assay: Co-stimulation assay in lysed whole blood: IFNa (JAK1/TYK2) stimulated STAT1 phosphorylation. Type of assay: cell-based. Conditions: 100 ng/mL IFNa (with 10 ng/mL GM-CSF), pSTAT by flow cytometry. The procedure, abridged:
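Lysed human whole blood (RBC-lysed, resuspended in cRPMI) pre-incubated with compound 1 h at 37 °C, then stimulated 20 min with IFNa 100 ng/mL plus GM-CSF 10 ng/mL (final). Fixed, permeabilised, stained for pSTAT1 (PE) and pSTAT5 (AF488); flow cytometry read-out, ≥5,000–10,000 cells acquired.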
(Flow cytometry measures light scatter and fluorescence of single cells or particles in a stream.)

What is called IC50 is the midpoint of a concentration-inhibition curve. The low end stands for inhibition by little substance, the high end for a need for much substance. Where the note is “Homo sapiens, 20 min”, `CNC(=O)Nc1cnn2c(NC)cc(Nc3cccc(OC)c3)nc12` [Compound 150, 1-(5-((3-methoxyphenyl)amino)-7-(methylamino)pyrazolo[1,5-a]pyrimidin-3-yl)-3-methylurea] yielded an IC50 of under 1000 nM.

Turning to `CNC(=O)Nc1cnn2c(NC)cc(Nc3ccc(OC)cc3)nc12` [Compound 151, 1-(5-((4-methoxyphenyl)amino)-7-(methylamino)pyrazolo[1,5-a]pyrimidin-3-yl)-3-methylurea], where the note is “Homo sapiens, 20 min”, the half-inhibitory concentration (IC50) was 1000 to 10000 nM.

`CNC(=O)Nc1cnn2c(NC)cc(Nc3cc(C)cc(C)c3)nc12` [Compound 152, 1-(5-((3,5-dimethylphenyl)amino)-7-(methylamino)pyrazolo[1,5-a]pyrimidin-3-yl)-3-methylurea] displayed an IC50 (Homo sapiens, 20 min) of under 1000 nM.

Under “Homo sapiens, 20 min”, `CNC(=O)Nc1cnn2c(NC)cc(Nc3cccc4c3OCO4)nc12` [Compound 153, 1-(5-(benzo[d][1,3]dioxol-4-ylamino)-7-(methylamino)pyrazolo[1,5-a]pyrimidin-3-yl)-3-methylurea] had a half-inhibitory concentration (IC50) of under 1000 nM.

Compound `CNC(=O)Nc1cnn2c(NC)cc(Nc3cccc4c3CCCO4)nc12` [Compound 154, 1-(5-(chroman-5-ylamino)-7-(methylamino)pyrazolo[1,5-a]pyrimidin-3-yl)-3-methylurea] had an IC50 (Homo sapiens, 20 min) of under 1000 nM.

With `CNC(=O)Nc1cnn2c(NC)cc(NC3CCCC3)nc12` [Compound 155, 1-(5-(cyclopentylamino)-7-(methylamino)pyrazolo[1,5-a]pyrimidin-3-yl)-3-methylurea], the IC50 (Homo sapiens, 20 min) was 1000 to 10000 nM.

For the compound `CNC(=O)Nc1cnn2c(NC)cc(Nc3ccccc3S(C)(=O)=O)nc12` [Compound 156, 1-methyl-3-(7-(methylamino)-5-((2-(methylsulfonyl)phenyl)amino)py-razolo[1,5-a]pyrimidin-3-yl)urea], the IC50 (Homo sapiens, 20 min) was at least 10000 nM.

The compound `CNC(=O)Nc1cnn2c(NC)cc(Nc3cccc4c3OCCC4)nc12` [Compound 157, 1-(5-(chroman-8-ylamino)-7-(methylamino)pyrazolo[1,5-a]pyrimidin-3-yl)-3-methylurea] yielded an IC50 (Homo sapiens, 20 min) of under 1000 nM.

Turning to `CNC(=O)Nc1cnn2c(NC)cc(Nc3cc(F)cc4c3OCCC4)nc12` [Compound 158, 1-(5-((6-fluorochroman-8-yl)amino)-7-(methylamino)pyrazolo[1,5-a]pyrimidin-3-yl)-3-methylurea], the half-inhibitory concentration (IC50) (Homo sapiens, 20 min) was under 1000 nM.

Take `CNC(=O)Nc1cnn2c(NC)cc(N(C)c3ccccc3)nc12` [Compound 159, 1-methyl-3-(5-(methyl(phenyl)amino)-7-(methylamino)pyrazolo[1,5-a]pyrimidin-3-yl)urea]: the IC50 (Homo sapiens, 20 min) was at least 10000 nM.

Consider `CNC(=O)Nc1cnn2c(NC)cc(Nc3cccc4ccccc34)nc12` [Compound 160, 1-methyl-3-(7-(methylamino)-5-(naphthalen-1-ylamino)pyrazolo[1,5-a]pyrimidin-3-yl)urea], for which the IC50 (Homo sapiens, 20 min) is under 1000 nM.

The compound `CNC(=O)Nc1cnn2c(NC)cc(Nc3ccccc3Oc3ccccc3)nc12` [Compound 161, 1-methyl-3-(7-(methylamino)-5-((2-phenoxyphenyl)amino)pyrazolo[1,5-a]pyrimidin-3-yl)urea] yielded a 50% inhibitory concentration (IC50) (Homo sapiens, 20 min) of 1000 to 10000 nM.

Take `CNC(=O)Nc1cnn2c(NC)cc(Nc3ccccc3OC(C)C)nc12` [Compound 162, 1-(5-((2-isopropoxyphenyl)amino)-7-(methylamino)pyrazolo[1,5-a]pyrimidin-3-yl)-3-methylurea]: the IC50 (Homo sapiens, 20 min) was 1000 to 10000 nM.

In the case of `CNC(=O)Nc1cnn2c(NC)cc(Nc3cccc4c3N(C)CCO4)nc12` [Compound 163, 1-methyl-3-(5-((4-methyl-3,4-dihydro-2H-benzo[b][1,4]oxazin-5-yl)amino)-7-(methylamino)pyrazolo[1,5-a]pyrimidin-3-yl)urea], the IC50 (Homo sapiens, 20 min) is 1000 to 10000 nM.

The compound `CNC(=O)Nc1cnn2c(NC)cc(Nc3cccnc3OC)nc12` [Compound 164, 1-(5-((2-methoxypyridin-3-yl)amino)-7-(methylamino)pyrazolo[1,5-a]pyrimidin-3-yl)-3-methylurea] registered an IC50 (Homo sapiens, 20 min) of under 1000 nM.

Compound `CNC(=O)Nc1cnn2c(NC)cc(Nc3ccccc3-c3ccccc3)nc12` [Compound 165, 1-(5-([1,1′-biphenyl]-2-ylamino)-7-(methylamino)pyrazolo[1,5-a]pyrimidin-3-yl)-3-methylurea] displayed an IC50 (Homo sapiens, 20 min) of at least 10000 nM.

The compound `CNC(=O)Nc1cnn2c(NC)cc(Nc3cccc4nccnc34)nc12` [Compound 166, 1-methyl-3-(7-(methylamino)-5-(quinoxalin-5-ylamino)pyrazolo[1,5-a]pyrimidin-3-yl)urea] showed an IC50 (Homo sapiens, 20 min) of under 1000 nM.

Take `CNC(=O)Nc1cnn2c(NC)cc(NC(=O)c3ccccc3)nc12` [Compound 167, N-(7-(methylamino)-3-(3-methylureido)pyrazolo[1,5-a]pyrimidin-5-yl)benzamide]: the IC50 (Homo sapiens, 20 min) lay within 1000 to 10000 nM.

In turn, `CNC(=O)Nc1cnn2c(NC)cc(Nc3ccccc3OC(F)(F)F)nc12` [Compound 168, 1-methyl-3-(7-(methylamino)-5-((2-(trifluoromethoxy)phenyl)amino)pyrazolo[1,5-a]pyrimidin-3-yl)urea] had an IC50 (Homo sapiens, 20 min) of 1000 to 10000 nM.

With `CNC(=O)Nc1cnn2c(NC)cc(Nc3cccc4c3OCCCO4)nc12` [Compound 169, 1-(5-((3,4-dihydro-2H-benzo[b][1,4]dioxepin-6-yl)amino)-7-(methylamino)pyrazolo[1,5-a]pyrimidin-3-yl)-3-methylurea], the IC50 (Homo sapiens, 20 min) is under 1000 nM.

`CNC(=O)Nc1cnn2c(NC)cc(Nc3cccc4c3CCCC4)nc12` [Compound 170, 1-methyl-3-(7-(methylamino)-5-((5,6,7,8-tetrahydronaphthalen-1-yl)amino)pyrazolo[1,5-a]pyrimidin-3-yl)urea] had an IC50 (Homo sapiens, 20 min) of 1000 to 10000 nM.

Turning to `CNc1cc(Nc2cccnc2OC(F)F)nc2c(NC(=O)N[C@@H]3C[C@@H]3F)cnn12` [Compound 171, 1-(5-((2-(difluoromethoxy)pyridin-3-yl)amino)-7-(methylamino)pyrazolo[1,5-a]pyrimidin-3-yl)-3-((1R,2S)-2-fluorocyclopropyl)urea], the IC50 (Homo sapiens, 20 min) was in the range of 1000 to 10000 nM.

Regarding `CNc1cc(Nc2cccc3c2OCCO3)nc2c(NC(=O)N[C@@H]3C[C@@H]3F)c(C)nn12` [Compound 172, 1-(5-((2,3-dihydrobenzo[b][1,4]dioxin-5-yl)amino)-2-methyl-7-(methylamino)pyrazolo[1,5-a]pyrimidin-3-yl)-3-((1R,2S)-2-fluorocyclopropyl)urea], for the setting “Homo sapiens, 20 min”, the IC50 was at least 10000 nM.

`CNc1cc(Nc2c(F)ccc3c2OCCO3)nc2c(NC(=O)NCC#N)cnn12` [Compound 174, 1-(cyanomethyl)-3-(5-((6-fluoro-2,3-dihydrobenzo[b][1,4]dioxin-5-yl)amino)-7-(methylamino)pyrazolo[1,5-a]pyrimidin-3-yl)urea] returned an IC50 (lysed human whole blood, 20 minutes) of at least 10000 nM.

On to `CNc1cc(Nc2c(F)ccc3c2OCCO3)nc2c(NC(=O)N[C@@H]3C[C@@H]3F)cnn12` [Compound 175, 1-(5-((6-fluoro-2,3-dihydrobenzo[b][1,4]dioxin-5-yl)amino)-7-(methylamino)pyrazolo[1,5-a]pyrimidin-3-yl)-3-((1R,2S)-2-fluorocyclopropyl)urea], for which, for the setting “Homo sapiens, 20 min”, the IC50 was at least 10000 nM.

As to `CNc1cc(Nc2cc(F)cc3c2OCCO3)nc2c(NC(=O)NCCC(F)F)cnn12` [Compound 178, 1-(3,3-difluoropropyl)-3-(5-((7-fluoro-2,3-dihydrobenzo[b][1,4]dioxin-5-yl)amino)-7-(methylamino)pyrazolo[1,5-a]pyrimidin-3-yl)urea], the half-inhibitory concentration (IC50) (Homo sapiens, 20 min) was under 1000 nM.

For `CNc1cc(Nc2cccc3c2OCCO3)nc2c(NC(=O)NCCC(F)F)cnn12` [Compound 179, 1-(3,3-difluoropropyl)-3-(5-((2,3-dihydrobenzo[b][1,4]dioxin-5-yl)amino)-7-(methylamino)pyrazolo[1,5-a]pyrimidin-3-yl)urea], where the note is “Homo sapiens, 20 min”, the IC50 was under 1000 nM.

Under “Homo sapiens, 20 min”, `CNc1cc(Nc2cc(F)cc3c2OCCO3)nc2c(NC(=O)NCC3(C#N)CC3)cnn12` [Compound 180, 1-((1-cyanocyclopropyl)methyl)-3-(5-((7-fluoro-2,3-dihydrobenzo[b][1,4]dioxin-5-yl)amino)-7-(methylamino)pyrazolo[1,5-a]pyrimidin-3-yl)urea] came in with an IC50 of at least 10000 nM.

`[2H]C([2H])([2H])Nc1cc(Nc2cc(F)cc3c2OC([2H])([2H])C([2H])([2H])O3)nc2c(NC(=O)N[C@@H]3C[C@@H]3F)cnn12` [Compound 181, 1-(5-((7-fluoro-2,3-dihydrobenzo[b][1,4]dioxin-5-yl-2,2,3,3-d4)amino)-7-((methyl-d3)amino)pyrazolo[1,5-a]pyrimidin-3-yl)-3-((1R,2S)-2-fluorocyclopropyl)urea]: the IC50 (Homo sapiens, 20 min) was under 1000 nM.

`[2H]C1([2H])Oc2cc(F)cc(Nc3cc(NC)n4ncc(NC(=O)N[C@@H]5C[C@@H]5F)c4n3)c2OC1([2H])[2H]` [Compound 182, 1-(5-((7-fluoro-2,3-dihydrobenzo[b][1,4]dioxin-5-yl-2,2,3,3-d4)amino)-7-(methylamino)pyrazolo[1,5-a]pyrimidin-3-yl)-3-((1R,2S)-2-fluorocyclopropyl)urea] gave an IC50 (Homo sapiens, 20 min) of under 1000 nM.

Turning to `CNc1cc(Nc2cccc3c2OCCC3=O)nc2c(NC(=O)N[C@@H]3C[C@@H]3F)cnn12` [Compound 183, 1-((1R,2S)-2-fluorocyclopropyl)-3-(7-(methylamino)-5-((4-oxochroman-8-yl)amino)pyrazolo[1,5-a]pyrimidin-3-yl)urea], the IC50 (Homo sapiens, 20 min) was under 1000 nM.

Turning to `CNc1cc(Nc2cccc3c2OCCC3(F)F)nc2c(NC(=O)N[C@@H]3C[C@@H]3F)cnn12` [Compound 184, 1-(5-((4,4-difluorochroman-8-yl)amino)-7-(methylamino)pyrazolo[1,5-a]pyrimidin-3-yl)-3-((1R,2S)-2-fluorocyclopropyl)urea], the IC50 (Homo sapiens, 20 min) lay within 1000 to 10000 nM.

With `CNc1cc(Nc2cc(F)cc3c2OC[C@H](CO)O3)nc2c(NC(=O)N[C@@H]3C[C@@H]3F)cnn12` [Compound 185, 1-(5-(((S)-7-fluoro-2-(hydroxymethyl)-2,3-dihydrobenzo[b][1,4]dioxin-5-yl)amino)-7-(methylamino)pyrazolo[1,5-a]pyrimidin-3-yl)-3-((1R,2S)-2-fluorocyclopropyl)urea], the IC50 (Homo sapiens, 20 min) lay in the range of 1000 to 10000 nM.
